Experimental findings from ChEMBL document CHEMBL6153103, “Novel Bioorthogonal Theranostic Scaffold Enables on-Target Drug Release and Real Time Monitoring In Vivo” (J Med Chem, 2025) are described below.

Data set [1] relates to A549. In words: Cytotoxicity against human A549 cells assessed as inhibition of cell proliferation incubated for 72 hrs by CCK-8 assay. Type of data set: functional, cell-based. To be noted: A549, 72 h. (Tetrazolium assays rely on reduction of a dye to a coloured formazan, in cell work by metabolically active cells.)
Data set [2] is described as follows: Prodrug release in human A549 cells xenografted in BALB/c nude mouse assessed as DOX release by measuring change in green fluorescence intensity in tumor at 5 mg/kg, ip administered for 1 hr by DAPI staining based confocal microscopic analysis. In kind it is ADME, organism-based. To be noted: in vivo. (A xenograft is tissue or cells of one species grown in another, often human tumour cells in immunodeficient mice.)

Data set [3] is described as follows: Prodrug activation in human A549 cells xenografted in BALB/c nude mouse assessed as blue fluorescence intensity in tumor at 5 mg/kg, ip administered for 1 hr by confocal microscopic analysis. Type of data set: organism-based. The conditions noted are these: in vivo.
For data set [4], the system named is HeLa. In words: Cytotoxicity against human HeLa cells assessed as inhibition of cell proliferation incubated for 72 hrs by CCK-8 assay. Type of data set: functional, cell-based.
Data set [5] can be described thus: Cytotoxicity against human HEK293T cells assessed as inhibition of cell proliferation incubated for 72 hrs by CCK-8 assay. Type of data set: toxicity, cell-based, HEK-293T.
For data set [6], the system named is A549. The data set is described as follows: Cytotoxicity against human A549 cells assessed as inhibition of cell proliferation incubated for 72 hrs in presence of 10 uM 4-(6-methyl-1,2,4,5-tetrazin-3-yl)benzyl 3-(2-hydroxyethoxy)-2,3-dihydrophenanthro[9,10-b][1,4]dioxine-7-carboxylate by CCK-8 assay. In kind it is functional, cell-based. The conditions noted are these: A549, 72 h.

In data set [7] the test system is A549. The data set is described as follows: Cytotoxicity against human A549 cells assessed as inhibition of cell proliferation incubated for 72 hrs in presence of 15 uM 4-(6-methyl-1,2,4,5-tetrazin-3-yl)benzyl 3-(2-hydroxyethoxy)-2,3-dihydrophenanthro[9,10-b][1,4]dioxine-7-carboxylate by CCK-8 assay. Type of data set: functional, cell-based. To be noted: A549, 72 h.

Data set [8] relates to HeLa. In words: Cytotoxicity against human HeLa cells assessed as inhibition of cell proliferation incubated for 72 hrs 15 uM of (4-((2-((10-(((4-(6-methyl-1,2,4,5-tetrazin-3-yl)benzyl)oxy)carbonyl)-2,3-dihydrophenanthro[9,10-b][1,4]dioxin-2-yl)oxy)ethoxy)carbonyl)phenyl)boronic acid by CCK-8 assay. Type of data set: functional, cell-based.
Data set [9] is described as follows: Drug uptake in human HEK293T cells assessed as increase in blue fluorescence intensity at 100 uM incubated for 1 hr by confocal fluorescence microscopic analysis. Type of data set: ADME, cell-based. The conditions noted are these: hek-293t.
A short description of data set [10]: Prodrug release in human A549 cells assessed as DOX release by measuring increase in fluorescence intensity at 100 uM measured after 2 hrs by confocal microscopy. In kind it is ADME, cell-based. To be noted: a549, 2 h.
Data set [11] in a line: Cytotoxicity against human HEK293T cells assessed as inhibition of cell proliferation incubated for 72 hrs 15 uM of 4-(6-methyl-1,2,4,5-tetrazin-3-yl)benzyl 3-(2-hydroxyethoxy)-2,3-dihydrophenanthro[9,10-b][1,4]dioxine-7-carboxylate by CCK-8 assay. Type of data set: toxicity, cell-based, HEK-293T.
In data set [12] the test system is HeLa. In words: Cytotoxicity against human HeLa cells assessed as inhibition of cell proliferation incubated for 72 hrs 15 uM of 4-(6-methyl-1,2,4,5-tetrazin-3-yl)benzyl 3-(2-hydroxyethoxy)-2,3-dihydrophenanthro[9,10-b][1,4]dioxine-7-carboxylate by CCK-8 assay. In kind it is functional, cell-based.
A short description of data set [13]: Cytotoxicity against human HEK293T cells assessed as inhibition of cell proliferation incubated for 72 hrs 15 uM of (4-((2-((10-(((4-(6-methyl-1,2,4,5-tetrazin-3-yl)benzyl)oxy)carbonyl)-2,3-dihydrophenanthro[9,10-b][1,4]dioxin-2-yl)oxy)ethoxy)carbonyl)phenyl)boronic acid by CCK-8 assay. In kind it is toxicity, cell-based, HEK-293T.
Data set [14] is described as follows: Drug uptake in human HeLa cells assessed as increase in blue fluorescence intensity at 100 uM incubated for 1 hr by confocal fluorescence microscopic analysis. In kind it is ADME, cell-based.
The test system of data set [15] is A549. The data set is described as follows: Cytotoxicity against human A549 cells assessed as inhibition of cell proliferation upto 20 uM incubated for 72 hrs by CCK-8 assay. Type of data set: functional, cell-based.
The test system of data set [16] is A549. The data set is described as follows: Cytotoxicity against human A549 cells assessed as cell viability incubated for 72 hrs by CCK-8 assay. Type of data set: functional, cell-based. To be noted: A549, 72 h.
Data set [17] relates to A549. In words: Cytotoxicity against human A549 cells assessed as inhibition of cell proliferation incubated for 72 hrs in presence of 80 uM 4-(6-methyl-1,2,4,5-tetrazin-3-yl)benzyl 3-(2-hydroxyethoxy)-2,3-dihydrophenanthro[9,10-b][1,4]dioxine-7-carboxylate by CCK-8 assay. To be noted: A549, 72 h. Type of data set: functional, cell-based.
The test system of data set [18] is A549. In words: Cytotoxicity against human A549 cells assessed as inhibition of cell proliferation incubated for 72 hrs in presence of 60 uM 4-(6-methyl-1,2,4,5-tetrazin-3-yl)benzyl 3-(2-hydroxyethoxy)-2,3-dihydrophenanthro[9,10-b][1,4]dioxine-7-carboxylate by CCK-8 assay. In kind it is functional, cell-based. The conditions noted are these: A549, 72 h.
A short description of data set [19]: Prodrug release in human A549 cells assessed as DOX release by measuring increase in fluorescence intensity at 50 uM measured after 2 hrs by confocal microscopy. To be noted: a549, 2 h. Type of data set: ADME, cell-based.

Active and inactive are the calls of the source. The rule behind the calls is not given here. A value given as a limit tells only on which side of the number the result lay.

The IC50 is the midpoint of a concentration-inhibition curve. `CO[C@@]12[C@H](COC(N)=O)C3=C(C(=O)C(C)=C(N)C3=O)N1C[C@@H]1N[C@@H]12` [MITOMYCIN]: the half-maximal inhibitory concentration (IC50) in data set [1] worked out at 0.03 µM.
Turning to `Cc1nnc(-c2ccc(COC(=O)c3ccc4c5c(c6ccccc6c4c3)OCC(OCCOC(=O)c3ccc(B(O)O)cc3)O5)cc2)nn1` (centres undefined), the Drug metabolism result in data set [2] is on record as “metabolite_detected”; in data set [3], “metabolite_notdetected”.
`COc1cccc2c1C(=O)c1c(O)c3c(c(O)c1C2=O)C[C@@](O)(C(=O)CO)C[C@@H]3O[C@H]1C[C@H](N)[C@H](O)[C@H](C)O1` [DOXORUBICIN]: the IC50 in data set [4] stood at 0.014 µM.
Take `COc1cccc2c1C(=O)c1c(O)c3c(c(O)c1C2=O)C[C@@](O)(C(=O)CO)C[C@@H]3O[C@H]1C[C@H](NC(=O)OC2/C=C/CCCCC2)[C@H](O)[C@H](C)O1` (some centres undefined): the IC50 at 72 h in data set [5] came out at 1.15 µM; in data set [11], 0.126 µM; in data set [13], 0.145 µM. In addition, the half-inhibitory concentration (IC50) in [6] was found to be 0.067 µM; in data set [7], 0.058 µM; in [8], 0.03 µM; in data set [1] it was 0.537 µM; in data set [12], 0.059 µM; in data set [4], 0.989 µM. In addition, the Drug uptake entry in data set [9] and in [14] was “Not_active” throughout. In addition, the Drug metabolism entry in data set [10] is reported as “metabolite_detected”; in [2], “metabolite_detected”; in [3], “metabolite_notdetected”.
The EC50 is the concentration that produces a half-maximal response. For the compound `Cc1nnc(-c2ccc(COC(=O)c3ccc4c5c(c6ccccc6c4c3)OCC(OCCO)O5)cc2)c2c1CCCCCC2` (centres undefined), the result in data set [15] was Active. The EC50 in [16] was above 50 µM.
Regarding `[C-]#[N+]CCCOC(=O)N1[C@H]2[C@@H]1CN1C3=C(C(=O)C(N)=C(C)C3=O)[C@@H](COC(N)=O)[C@@]21OC`, the IC50 is 0.239 µM in [17], 0.313 µM in data set [6], 0.359 µM in [1] and 0.239 µM in [18].
As for `Cc1nnc(-c2ccc(COC(=O)c3ccc4c5c(c6ccccc6c4c3)OCC(OCCO)O5)cc2)nn1` (centres undefined), the Drug metabolism result in data set [19] was “metabolite_detected”. For the same compound, the outcome in data set [15] was Active. The Drug uptake entry in data set [9] and in data set [14] was “Not_active” in each case. Besides, in data set [16], the EC50 is above 50 µM.
